Here are results for one molecule from BindingDB's records for patent US20230303553 (Jiangsu Tasly Diyi Pharmaceutical, 2023).

The test has as its target Cyclin-dependent kinase 6 (Homo sapiens, UniProt Q00534). Briefly: CDK6 Kinase Activity Analysis and Detection Method.

As a reminder, the IC50 is the midpoint of a concentration-inhibition curve. A high value points to weaker potency.

Cyclin-dependent kinase 6, sequence (Q00534 whole entry): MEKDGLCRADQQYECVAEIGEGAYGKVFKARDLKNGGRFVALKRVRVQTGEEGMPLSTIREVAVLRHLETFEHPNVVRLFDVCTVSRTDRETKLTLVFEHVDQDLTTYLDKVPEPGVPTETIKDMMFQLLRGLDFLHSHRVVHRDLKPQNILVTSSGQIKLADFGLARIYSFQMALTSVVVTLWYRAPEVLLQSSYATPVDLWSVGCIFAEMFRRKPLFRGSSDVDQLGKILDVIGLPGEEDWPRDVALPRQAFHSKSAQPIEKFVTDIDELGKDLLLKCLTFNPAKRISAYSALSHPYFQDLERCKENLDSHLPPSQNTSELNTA

`CCN1CCN(C(=O)c2ccc(Nc3ncc(F)c(-c4ccc5nc(C)sc5c4)n3)nc2)CC1` [US20230303553, Example 12] returned an IC50 of 127 nM. This counts as sub-micromolar.
